Test results taken from patent publication US20020061888A1, “Combination therapy for the prophylaxis and treatment of hyperlipidemic conditions and disorders” (priority 2000, published 2002).
One block for each compound: values may come before it.

Assay: Water uptake experiments (Dynamic Vapor Sorption, water sorption/desorption isotherms at 25° C.)
Assay type: physicochemical
Procedure: A dry sample of the crystalline form having a melting point or a decomposition point of about 278° C. to about 285° C. (i.e., Form II) typically gains less than about 1% of its own weight when equilibrated under 80% relative humidity (RH) air at 25° C. […] For the present purposes, the term “essentially 0% RH” means less than about 1% RH. The term “equilibrated” means that the change in weight of a sample over time at a given relative humidity is less than 0.0003% ((dm/dt)/m0 ×100, where m is mass in mg, m0 is initial mass, and t is time in minutes).
Water sorption experiments are performed on a Dynamic Vapor Sorption (DVS) apparatus (DVS-1000 manufactured by Surface Measurements Systems, Inc.). Experiments are performed at 25° C. by initially drying the material of interest (about 10 mg sample) from 30% relative humidity (RH) ([…] RH step) by purging with dry nitrogen until no further weight change was observed. The samples are then exposed to a stepwise (10% RH steps) increase in RH from about 0 to about 90% RH. Each successive step is initiated when the change in weight over time at the relative humidity was less than 0.0003% ((dm/dt)/m0×100, where m is mass in mg, m0 is initial mass, and t is time in minutes). The sample is then taken through the reverse of the stepwise % RH increase. The data are collected on a computer and analyzed using SMS' proprietary MS-Excel macro interface software.

- Desorption % Weight Change (1.3% RH at 25° C.): −0.02695%
- Sorption % Weight Change (1.3% RH at 25° C.): −0.02695%
- Desorption % Weight Change (9.35% RH at 25° C.): 0.04235%
- Sorption % Weight Change (9.35% RH at 25° C.): 0.04715%
- Desorption % Weight Change (20.25% RH at 25° C.): 0.09715%
- Sorption % Weight Change (20.25% RH at 25° C.): 0.1058%
- Desorption % Weight Change (29.75% RH at 25° C.): 0.1444%
- Sorption % Weight Change (29.75% RH at 25° C.): 0.1376%
- Desorption % Weight Change (39.55% RH at 25° C.): 0.1866%
- Sorption % Weight Change (39.55% RH at 25° C.): 0.1809%
- Desorption % Weight Change (49.7% RH at 25° C.): 0.2636%
- Sorption % Weight Change (49.7% RH at 25° C.): 0.2386%
- Desorption % Weight Change (59.5% RH at 25° C.): 0.331%
- Sorption % Weight Change (59.5% RH at 25° C.): 0.304%
- Desorption % Weight Change (69.1% RH at 25° C.): 0.3983%
- Sorption % Weight Change (69.1% RH at 25° C.): 0.3945%
- Desorption % Weight Change (78.65% RH at 25° C.): 0.4849%
- Sorption % Weight Change (78.65% RH at 25° C.): 0.4695%
- Desorption % Weight Change (88.5% RH at 25° C.): 0.6446%
- Sorption % Weight Change (88.5% RH at 25° C.): 0.6446%
- hygroscopicity (crystalline form, 80% RH air at 25° C.): essentially non-hygroscopic
- weight gain when equilibrated under 80% relative humidity (RH) air at 25° C. (dry sample (dried at essentially 0% RH, about 25° C., dry nitrogen purge)): less than 1 % of its own weight
SMILES: CCCCC1(CCCC)CS(=O)(=O)c2ccc(N(C)C)cc2[C@@H](c2ccc(OCc3ccc(C[N+]45CCN(CC4)CC5)cc3)cc2)[C@H]1O [Form II, (4R,5R)-1-((4-(4-(3,3-dibutyl-7-(dimethylamino)-2,3,4,5-tetrahydro-4-hydroxy-1,1-dioxido-1-benzithiepin-5-yl)phenoxy)methyl)phenyl)methyl-4-aza-1-azoniabicyclo[2.2.2]octane chloride]

- Desorption % Weight Change (0.45% RH at 25° C.): 0.057%
- Sorption % Weight Change (0.45% RH at 25° C.): 0.057%
- Desorption % Weight Change (9.2% RH at 25° C.): 0.997%
- Sorption % Weight Change (9.2% RH at 25° C.): 0.9575%
- Desorption % Weight Change (20.05% RH at 25° C.): 2.1025%
- Sorption % Weight Change (20.05% RH at 25° C.): 2.016%
- Desorption % Weight Change (29.75% RH at 25° C.): 3.599%
- Sorption % Weight Change (29.75% RH at 25° C.): 3.4105%
- Desorption % Weight Change (39.4% RH at 25° C.): 4.743%
- Sorption % Weight Change (39.4% RH at 25° C.): 4.282%
- Desorption % Weight Change (49.55% RH at 25° C.): 5.321%
- Sorption % Weight Change (49.55% RH at 25° C.): 4.928%
- Desorption % Weight Change (59.4% RH at 25° C.): 5.726%
- Sorption % Weight Change (59.4% RH at 25° C.): 5.356%
- Desorption % Weight Change (69.05% RH at 25° C.): 6.054%
- Sorption % Weight Change (69.05% RH at 25° C.): 5.706%
- Desorption % Weight Change (78.8% RH at 25° C.): 6.357%
- Sorption % Weight Change (78.8% RH at 25° C.): 6.109%
- Desorption % Weight Change (88.5% RH at 25° C.): 6.734%
- Sorption % Weight Change (88.5% RH at 25° C.): 6.734%
SMILES: CCCCC1(CCCC)CS(=O)(=O)c2ccc(N(C)C)cc2[C@@H](c2ccc(OCc3ccc(C[N+]45CCN(CC4)CC5)cc3)cc2)[C@H]1O [Form I, (4R,5R)-1-((4-(4-(3,3-dibutyl-7-(dimethylamino)-2,3,4,5-tetrahydro-4-hydroxy-1,1-dioxido-1-benzithiepin-5-yl)phenoxy)methyl)phenyl)methyl-4-aza-1-azoniabicyclo[2.2.2]octane chloride]
